Laboratory results: US20220056043A1, “NITROGEN-CONTAINING FUSED CYCLIC COMPOUND, PREPARATION METHOD THEREFOR AND USE THEREOF” (SICHUAN KELUN-BIOTECH BIOPHARMACEUTICAL CO., LTD., priority 2019, published 2022)
Counter-ions that a name gives are not always drawn.

How the values were obtained:
[1] = target: T1, hNLRP3 inflammasome (Homo sapiens, UniProt Q96P20); assay: Agonistic effect on the expression of IL-1β in THP-1 cells after PMA-induced differentiation (HTRF); assay type: cell-based; settings: IL-1β level, PMA-differentiated THP-1 cells, 6 hours
T1 construct: endogenous in cells; host or cells: THP-1 cells, PMA-differentiated
Source text: Experimental Example 1: Agonistic Effect of the Compound of the Invention on the Expression of IL-1β in THP-1 Cells after PMA-Induced Differentiation
In this test, a HTRF (homogeneous time-resolved fluorescence) detection method was used to test the effect of the compound of the invention on the level of downstream cytokine IL-1β of NLRP3 to evaluate the agonistic effect of the compound on hNLRP3 inflammasome or hNLRP3 inflammasome pathway at a cellular level.
Reagent: RPMI 1640 (Hyclone); heat-inactivated FBS (fetal bovine serum) (Gibco); PMA (phorbol myristal acetate) (Beyotime)
Kit: IL-1β assay kit (CISIO)
1) THP-1 cells in a logarithmic growth phase were seeded in a T75 culture flask at a density of 5×10^5 cells/well, and cultured in a cell incubator at 37° C., 5% CO2 for 24 hours, and then 1 μM PMA was used to induce THP-1 suspension cells to become adherent macrophages. The medium was RPMI 1640 containing 10% heat-inactivated FBS and 0.05 mM β-mercaptoethanol.
2) The cells were induced and cultured for 24 hours. Then the adherent cells were trypsinized and centrifuged at 1000 rpm for 5 min. The supernatant was removed, and the cells were resuspended to a density of 2×10^6 cells/mL in RPMI 1640 medium containing 2% heat-inactivated FBS. 50 μL/well of cell resuspension was taken and spread on a 96-well plate such that the number of cells in each well was 1×10^5.
3) An appropriate amount of 10 mM DMSO solution of the compound to be tested was taken and diluted to a concentration of 2× test concentration with RPMI 1640 medium containing 2% heat-inactivated FBS. 50 μL/well of the dilution was added to the cells in the 96-well plate, and mixed well. The plate was placed in a cell incubator at 37° C., 5% CO2 for 6 hours. The supernatant was collected, and the level of IL-1β was measured in accordance with the instructions of the IL-1β detection kit.
4) EC50 was fitted by the GraphPad software log(agonist) vs. response—Variable slope four-parameter method.

[2] = tested on: CT26 mouse colon cancer subcutaneously transplanted tumor; assay: In vivo efficacy on bilaterally inoculated CT26 mouse colon cancer subcutaneously transplanted tumor; settings: for tumor volume (mm^3) day 0 / tumor volume (mm^3) day 14: twice a week for two weeks; for tumor volume (mm^3) day 0: day 0 (grouping); for tumor volume (mm^3) day 14 / TGI (%): day 14
Experimental: Experimental Example 7: In Vivo Efficacy of the Compounds of the Invention on Bilaterally Inoculated CT26 Mouse Colon Cancer Subcutaneously Transplanted Tumor
1) CT26 mouse colon cancer cells were cultured in a monolayer in vitro. When the cells were in a logarithmic growth phase, the cells were collected by centrifugation and counted.
2) 0.1 ml of PBS resuspension containing 3×10^5 CT26 cells was inoculated subcutaneously in the bilateral shoulder blades of mice respectively. When the bilateral scapular tumors of the mice grew to a volume of about 100 mm^3, the mice were randomly divided into 4 groups according to the bilateral tumor volumes, 8 mice in each group.
3) Compound 115s was injected into the tumor at the right scapular tumor of mice at 10 μg/time, 50 μg/time, and 250 μg/time, respectively, twice a week for two consecutive weeks. The bilateral tumor volumes and the body weight of the animals were measured.
4) Tumor inhibition rate, TGI (%), was calculated based on the tumor volumes to evaluate the inhibitory effect of Compound 115s on the growth of transplanted tumors in the mice. The calculation formula was: TGI (%)=100%−(TVt−TV0)/(CVt−CV0)×100%. When the tumor was regressing, the calculation formula was: TGI (%)=100%−(TVt−TV0)/TV0×100%, wherein TV0 was the average tumor volume of the tested compound group at the time of grouping; TVt was the average tumor volume of the tested compound group at the time of measurement on the t^th day; CV0 was the average tumor volume of the vehicle group at the time of grouping; and CVt was the average tumor volume of the vehicle group at the time of measurement on the t^th day. For statistical analysis of differences between the two groups, student's t-test was used to calculate the P value.

[3] = administration side, 10 μg/time intratumoral
[4] = administration side, 50 μg/time intratumoral
[5] = administration side, 250 μg/time intratumoral
[6] = non-administration side, 10 μg/time intratumoral (other side)
[7] = non-administration side, 50 μg/time intratumoral (other side)
[8] = non-administration side, 250 μg/time intratumoral (other side)

T1 sequence (Q96P20 whole entry): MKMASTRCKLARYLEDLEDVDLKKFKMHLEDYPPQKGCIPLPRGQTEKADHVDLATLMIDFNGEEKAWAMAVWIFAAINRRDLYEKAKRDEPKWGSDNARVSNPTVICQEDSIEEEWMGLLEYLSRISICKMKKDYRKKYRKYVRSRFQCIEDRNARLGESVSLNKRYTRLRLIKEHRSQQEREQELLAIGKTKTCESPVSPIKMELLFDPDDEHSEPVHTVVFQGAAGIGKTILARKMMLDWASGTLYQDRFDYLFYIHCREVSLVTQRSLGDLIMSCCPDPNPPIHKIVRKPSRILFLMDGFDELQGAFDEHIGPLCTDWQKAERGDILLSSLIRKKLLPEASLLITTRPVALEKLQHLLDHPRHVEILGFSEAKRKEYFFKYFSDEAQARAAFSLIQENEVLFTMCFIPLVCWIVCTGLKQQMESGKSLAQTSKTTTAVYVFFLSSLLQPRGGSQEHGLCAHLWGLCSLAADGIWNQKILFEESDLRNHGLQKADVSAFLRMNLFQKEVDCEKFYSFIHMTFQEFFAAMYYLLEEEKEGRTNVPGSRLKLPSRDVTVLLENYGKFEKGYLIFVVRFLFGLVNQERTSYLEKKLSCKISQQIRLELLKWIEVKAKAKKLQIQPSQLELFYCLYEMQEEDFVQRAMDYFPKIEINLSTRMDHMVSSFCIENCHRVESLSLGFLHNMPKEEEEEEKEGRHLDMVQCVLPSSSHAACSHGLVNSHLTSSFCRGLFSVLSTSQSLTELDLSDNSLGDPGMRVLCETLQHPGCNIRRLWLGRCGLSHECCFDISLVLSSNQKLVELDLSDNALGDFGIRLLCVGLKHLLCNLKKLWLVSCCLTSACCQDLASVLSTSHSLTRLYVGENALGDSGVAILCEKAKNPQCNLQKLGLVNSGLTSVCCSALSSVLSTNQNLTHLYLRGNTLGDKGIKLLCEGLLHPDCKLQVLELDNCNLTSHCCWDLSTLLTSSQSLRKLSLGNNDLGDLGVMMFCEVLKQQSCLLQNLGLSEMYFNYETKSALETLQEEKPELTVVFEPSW

`Nc1cc(NCC(F)F)c2sc(-c3ccn[nH]3)cc2n1` [Compound 116s, N^7-(2,2-difluoroethyl)-2-(1H-pyrazol-5-yl)thieno[3,2-b]pyridine-5,7-diamine hydrochloride] showed an EC50 [1] of 0.05 µM.

`COCCNc1cc(N)nc2cc(-c3ccn[nH]3)sc12` [Compound 100s, N^7-(2-methoxyethyl)-2-(1H-pyrazol-5-yl)thieno[3,2-b]pyridine-5,7-diamine hydrochloride] showed an EC50 [1] of 0.01 µM.

`Nc1cc(NCC2CCOCC2)c2sc(-c3ccn[nH]3)cc2n1` [Compound 120s, 2-(1H-pyrazol-5-yl)-N^7-((tetrahydro-2H-pyran-4-yl)methyl)thieno[3,2-b]pyridine-5,7-diamine hydrochloride] gave an EC50 [1] of 0.03 µM.

With `CC(C)(CO)CNc1cc(N)nc2cc(-c3ccn[nH]3)sc12.Cl` [Compound 115s, 3-((5-amino-2-(1H-pyrazol-5-yl)thieno[3,2-b]pyridin-7-yl)amino)-2,2-dimethyl-1-propanol hydrochloride] the “tumor volume (mm^3) day 0” value [2, 3] was 74.63 ± 6.26 mm^3, the “tumor volume (mm^3) day 14” value [2, 3] was 499.05 ± 211.28 mm^3 and the “TGI (%)” value [2, 3] was 77.46%. For the same molecule, the “tumor volume (mm^3) day 0” value [2, 4] was 74.03 ± 4.69 mm^3, the “tumor volume (mm^3) day 14” value [2, 4] was 61.66 ± 41.15 mm^3 and the “TGI (%)” value [2, 4] was 144.99%. For the same molecule, the “tumor volume (mm^3) day 0” value [2, 5] was 74.00 ± 4.41 mm^3, the “tumor volume (mm^3) day 14” value [2, 5] was 0.00 ± 0.00 mm^3 and the “TGI (%)” value [2, 5] was 200.00%. For the same molecule, the “tumor inhibitory effect on the non-administration side tumors” value ([2]; intratumoral injection at the other side, in words) was “significant dose-dependent tumor inhibitory effect”, the “anti-tumor effect on the subcutaneous tumor at the administration side” value ([2]; intratumoral injection, compared with the vehicle group, in words) was “significant dose-dependent anti-tumor effect” and the “tumor inhibitory effect on bilateral CT26 subcutaneous tumors” value ([2]; intratumoral injection, summary in words) was “significant dose-dependent tumor inhibitory effect”. For the same molecule, the “tumor volume (mm^3) day 0” value [2, 6] was 85.21 ± 7.40 mm^3, the “tumor volume (mm^3) day 14” value [2, 6] was 1269.99 ± 140.11 mm^3 and the “TGI (%)” value ([2]; non-administration side, 10 μg/time) was 38.94%. For the same molecule, the “tumor volume (mm^3) day 0” value [2, 7] was 85.31 ± 6.01 mm^3, the “tumor volume (mm^3) day 14” value [2, 7] was 869.87 ± 99.95 mm^3 and the “TGI (%)” value ([2]; non-administration side, 50 μg/time) was 59.57%. The “tumor volume (mm^3) day 0” value [2, 8] was 85.17 ± 6.28 mm^3, the “tumor volume (mm^3) day 14” value [2, 8] was 462.85 ± 52.91 mm^3 and the “TGI (%)” value ([2]; non-administration side, 250 μg/time) was 80.54%.

`CCC(CC)Nc1cc(N)nc2cc(-c3ccn[nH]3)sc12` [Compound 113s, N^7-(pent-3-yl)-2-(1H-pyrazol-5-yl)thieno[3,2-b]pyridine-5,7-diamine hydrochloride] showed an EC50 [1] of 0.01 µM.

`Nc1cc(NC2CCCC2)c2sc(-c3ccn[nH]3)cc2n1` [Compound 110s, N^7-cyclopentyl-2-(1H-pyrazol-5-yl)thieno[3,2-b]pyridine-5,7-diamine hydrochloride] showed an EC50 [1] of 0.03 µM.
